Tests used:
[1] = Light absorption characteristics in a solution state (UV-Vis-NIR spectrometer); type: physicochemical; conditions: for λmax (nm) (solution): 1×10^−5 M; for UV-vis: λmax: CH2Cl2 Solution, in synthesis example
Description: The compounds according to Synthesis Examples 1 to 5 in dichloromethane, the compounds according to Comparative Synthesis Examples 1 and 2 in toluene, and the compound of Comparative Synthesis Example 3 in chloroform are respectively dissolved at a concentration of 1×10^−5 M to prepare solutions, and light absorption characteristics of the compounds in a solution state are evaluated. The light absorption characteristics are evaluated by using an UV-Vis-NIR spectrometer (UV-3600 Plus, Shimadzu Corp.) to measure a maximum absorption wavelength (λmax).

[2] = Light absorption characteristics in a thin film state (UV-Vis-NIR spectrometer); type: physicochemical; conditions: thin film spin-coated from chloroform on glass substrate
Description: In addition, the compounds of Synthesis Examples 1 to 5 are respectively dissolved in chloroform and coated on a glass substrate at 800 rpm for 60 seconds and at 400 rpm for 5 seconds with a spin coater, and the light absorption characteristics thereof in a thin film state are evaluated. The light absorption characteristics are evaluated by measuring a maximum absorption wavelength (λmax) by using a UV-Vis-NIR spectrometer (UV-3600 Plus, Shimadzu Corp.).

Compound	λmax (nm) (solution) ([1]; in toluene)	UV-vis: λmax [1] [nm]	λmax (nm) (solution) ([1]; in dichloromethane)	λmax (nm) (thin film) [2]
CCCCCCCCOc1ccc(N(c2ccc(OCCCCCCCC)cc2)c2ccc(-c3ccc(-c4c5c(c(-c6ccc(-c7ccc(N(c8ccc(OCCCCCCCC)cc8)c8ccc(OCCCCCCCC)cc8)cc7)s6)c6nsnc46)N=S=N5)s3)cc2)cc1 [Comparative Synthesis Example 1, reference compound]	920	–	–	–
CCCCCCCCC1(CCCCCCCC)c2ccccc2-c2ccc(-c3ccc(-c4c5c(c(-c6ccc(-c7ccc8c(c7)C(CCCCCCCC)(CCCCCCCC)c7ccccc7-8)s6)c6nsnc46)N=S=N5)s3)cc21 [Comparative Synthesis Example 2, reference compound]	848	–	–	–
CCCCCCOc1cc(-c2c3c(c(-c4cc(OCCCCCC)c(-c5cc6c(s5)c5sc(CCCCCC)cc5n6CCCCCC)s4)c4nsnc24)N=[Se]=N3)sc1-c1cc2c(s1)c1sc(CCCCCC)cc1n2CCCCCC [Synthesis Example 1]	–	1256	1256	1226
CCCCCCOc1cc(-c2c3c(c(-c4cc(OCCCCCC)c(-c5cc6c(s5)c5sc(CCCCCC)cc5n6CCCCCC)s4)c4nsnc24)N=S=N3)sc1-c1cc2c(s1)c1sc(CCCCCC)cc1n2CCCCCC [Synthesis Example 2]	–	1114	1076	1120
CCCCCCOc1cc(-c2c3nsnc3c(-c3cc(OCCCCCC)c(-c4cc5c(s4)c4sc(CCCCCC)cc4n5CCCCCC)s3)c3nc4c5ncccc5c5cccnc5c4nc23)sc1-c1cc2c(s1)c1sc(CCCCCC)cc1n2CCCCCC [Synthesis Example 3]	–	1143	1143	1166
CCCCCCOc1cc(-c2c3nsnc3c(-c3cc(OCCCCCC)c(-c4cc5c(s4)c4sc(CCCCCC)cc4n5CCCCCC)s3)c3nc4c5ccccc5c5ccccc5c4nc23)sc1-c1cc2c(s1)c1sc(CCCCCC)cc1n2CCCCCC [Synthesis Example 4]	–	1020	1020	1058
CCCCCCOc1cc(-c2c3c(c(-c4cc(OCCCCCC)c(-c5cc6c(s5)c5sc(CCCCCC)cc5n6CCCCCC)s4)c4n[se]nc24)N=[Se]=N3)sc1-c1cc2c(s1)c1sc(CCCCCC)cc1n2CCCCCC [Synthesis Example 5]	–	1376	1376	1285

— patent publication US20210343946A1, “INFRARED ABSORBERS, INFRARED ABSORBING/BLOCKING FILMS AND PHOTOELECTRIC DEVICES AND ORGANIC SENSORS AND ELECTRONIC DEVICES” (Samsung Electronics Co., Ltd., priority 2020, published 2021)
